Results published in US20160223554A1, “METHODS FOR DIAGNOSIS, PROGNOSIS AND METHODS OF TREATMENT” (priority 2011, published 2016).

Experiments:
AML blasts [1] = assay: DNA damage response (p-H2AX, p-Chk2) to chemotherapeutics in primary AML samples (Example 20); format: cell-based, human; conditions: for timing of induced DNA damage (pH2AX) relative to apoptosis: primary AML samples; for DDR: pH2AX, 48 hour treatment
Procedure: (§1) Cryopreserved peripheral blood (PBMC) or bone marrow (BMMC) mononuclear cells were obtained from patients with a new diagnosis of AML treated at British Columbia Cancer Agency or Lucile Packard Children's Hospital at Stanford University. All patients provided informed consent for research purposes. Samples were processed (thawed, modulated, fixed, permeabilized, and incubated with antibodies to both surface and intracellular proteins) as previously described (Kornblau, Minden et al., Dynamic single-cell network profiles in acute myelogenous leukemia are associated with patient response to standard induction therapy, 2010, Journal/Clin Cancer Res, 16, 14, 3721-3733; Rosen, Minden et al., Functional characterization of FLT3 receptor signaling deregulation in acute myeloid leukemia by single cell network profiling (SCNP), 2010, Journal/PLoS One, 5, 10, e13543). In this study, cellular DNA damage repair (DDR) and apoptosis were measured simultaneously in AML blasts after exposure to chemotherapeutic agents. Antibodies against phosphorylated (p)-H2AX or p-Chk2 were used to measure the DDR to DSB, while simultaneous measurements of cleaved PARP (c-PARP) and amine aqua viability dye were used to quantify apoptosis and cell death. Chemotherapeutics included Ara-C/Dauno (the two drugs currently used in standard AML induction therapy), Gemtuzumab Ozogamicin (GO), and three other agents currently being evaluated in AML clinical trials [Decitabine (DEC), 5-azacytidine (AZA) and Clofarabine (CLO)]. […] Drug-specific incubation times were chosen to analyze both DDR and apoptosis readouts: Ara-C/Dauno (24 hours), GO, CLO, AZA, DEC (48 hours). […] Similarly, apoptosis responses were not observed for DEC until 48 hours and were higher for AZA at 48 hours (data not shown). PI3Kinase/Akt and Raf/Ras pathway activities were assessed using stem cell factor (SCF) induced p-Akt and p-Erk readouts. Data was acquired on an LSRII flow cytometer and leukemic cells were identified by CD45 versus right-angle light-scatter. Metrics for DDR (Log2Fold) and induced apoptosis have been described previously (Rosen, Putta et al., Distinct patterns of DNA damage response and apoptosis correlate with Jak/Stat and PI3kinase response profiles in human acute myelogenous leukemia, 2010, Journal/PLoS One, 5, 8, e12405).

AML blasts [2] = assay: In vitro drug-induced apoptosis (c-PARP, amine aqua) in primary AML samples (Example 20); format: cell-based, human; conditions: for cells induced to undergo apoptosis: sample COG-06 (MDR+); for cells induced to undergo apoptosis / cells undergoing apoptosis / apoptotic cells: 48 hours, CLO 0.25 μM, AZA 2.5 μM, DEC 0.625 μM; for Apo: 48 hour treatment; for cells undergoing apoptosis: sample COG-07
Procedure: as §1

Molecule | timing of induced DNA damage (pH2AX) relative to apoptosis (AML blasts [1]) | cells induced to undergo apoptosis (AML blasts [2]) [%] | Apo (AML blasts [2]; sample COG-06) | cells undergoing apoptosis (AML blasts [2]) [%] | apoptotic cells (AML blasts [2]; sample COG-09) [%] | DNA damage response (DDR) (AML blasts [1]; sample COG-06) | DDR (AML blasts [1]; sample COG-06) | DNA damage response (DDR) (AML blasts [1]; sample COG-07) | DNA damage response (DDR) (AML blasts [1]; sample COG-09) | DDR (AML blasts [1]; sample COG-09) | effect of co-treatment on GO-induced apoptosis (AML blasts [2]; sample COG-06, resistant to Ara-C/Dauno and GO, co-treatment with GO) | Apo (AML blasts [2]; sample COG-09)
GO: recombinant humanized IgG4, kappa antibody conjugated with a cytotoxic antitumor antibiotic, calicheamicin | before apoptosis | – | – | – | – | – | – | – | – | – | – | –
Nc1nc(Cl)nc2c1ncn2[C@@H]1O[C@H](CO)[C@@H](O)[C@@H]1F [CLO] | before apoptosis | 81 | + (For Apo, “+” signifies induced apoptosis >50%.) | 20 | 13 | robust DDR | + (For DDR, “+” signifies Log2Fold >0.5 (in live cPARP- cells).) | defective DDR | robust DDR | + (For DDR, “+” signifies Log2Fold >0.5 (in live cPARP- cells).) | – | –
Nc1ncn([C@H]2C[C@H](O)[C@@H](CO)O2)c(=O)n1 [DEC] | – | 55.8 | + (For Apo, “+” signifies induced apoptosis >50%.) | 29 | 5 | – | – | – | – | – | – | –
C/C=C/C[C@@H](C)C(=O)[C@H]1C(=O)N[C@@H](C(C)C)C(=O)N(C)CC(=O)N(C)[C@@H](CC(C)C)C(=O)N[C@@H](C(C)C)C(=O)N(C)[C@@H](CC(C)C)C(=O)N[C@@H](C)C(=O)N[C@H](C)C(=O)N(C)[C@@H](CC(C)C)C(=O)N(C)[C@@H](CC(C)C)C(=O)N(C)[C@@H](C(C)C)C(=O)N1C [PSC833] | – | – | – | – | – | – | – | – | – | – | substantially sensitized the leukemic cells to GO-induced apoptosis | –
Nc1ncn([C@@H]2O[C@H](CO)[C@@H](O)[C@H]2O)c(=O)n1 [AZA, 5-azacytidine] | coincident with apoptosis | 77.5 | + (For Apo, “+” signifies induced apoptosis >50%.) | 32 | 57 | – | – | – | – | – | – | + (For Apo, “+” signifies induced apoptosis >50%.)
